Test results: patent US6916803B2, “3-(Heteroaryl acetamido)-2-oxo-azetidine-1-sulfonic acids derivatives as antibacterial agents” (Pantherix, Ltd., priority 2000, dated 2005)
≈ marks a conversion by molar mass, not a printed value. Where two headings read alike, the source gives them in different places.

Assays:
Assay in all cases: MIC, standard microbroth dilution method (NCCLS)
Assay type in all cases: cell-based
[1] = test system: C. freundii K 500; conditions: Citrobacter freundii, K500
Protocol: (§1) The compounds of the present invention were tested for minimum inhibitory concentration (MIC) against the bacteria listed in Table-1 according to the standard microbroth dilution method as described in NCCLS document. The minimum inhibitory concentration is expressed in μg/ml.

[2] = test system: E. cloaacae S 480-2
Protocol: as §1

[3] = test system: E. coli TEM-2; conditions: Escherichia coli, TEM2
Protocol: as §1

[4] = test system: K pneumoniae K-1150
Protocol: as §1

[5] = test system: M Morganii K 1250
Protocol: as §1

[6] = test system: P. aeruginosa PD 2721; conditions: Pseudomonas aeruginosa, PD2721
Protocol: as §1

[7] = test system: P. aeruginosa S 1598; conditions: Pseudomonas aeruginosa, S1598
Protocol: as §1

[8] = test system: P. aeruginosa CL 1267; conditions: Pseudomonas aeruginosa, CL1267
Protocol: as §1

MIC ([3]; E. coli TEM-2, read-out: MIC) [µg/mL]	Compound	MIC [1] [µg/mL]	MIC [2] [µg/mL]	MIC [4] [µg/mL]	MIC [5] [µg/mL]	MIC [6] [µg/mL]	MIC [7] [µg/mL]	MIC [8] [µg/mL]	MIC [3] [µg/mL]
0.06 (≈ 0.138 µM)	C[C@H]1[C@H](NC(=O)/C(=N\OC(C)(C)C(=O)O)c2csc(N)n2)C(=O)N1S(=O)(=O)O [Aztreonam, reference compound]	0.13 (≈ 0.299 µM)	0.13 (≈ 0.299 µM)	0.06 (≈ 0.138 µM)	0.06 (≈ 0.138 µM)	64 (≈ 147 µM)	32 (≈ 73.5 µM)		
0.06 (≈ 0.129 µM)	NC(=O)OC[C@@H]1[C@H](NC(=O)/C(=N\OCC(=O)O)c2csc(N)n2)C(=O)N1S(=O)(=O)O [Carumonam, reference compound]	0.06 (≈ 0.129 µM)	0.06 (≈ 0.129 µM)	0.06 (≈ 0.129 µM)	0.06 (≈ 0.129 µM)	32 (≈ 68.6 µM)	8 (≈ 17.2 µM)	8 (≈ 17.2 µM)	
	C[C@H]1[C@H](NC(=O)/C(=N\OCc2cc(=O)c(O)cn2O)c2csc(N)n2)C(=O)N1S(=O)(=O)[O-].[Na+] [Example 1]	0.13	0.06	0.13	0.06	4	0.13	0.06	0.06
	NC(=O)OCC1C(NC(=O)/C(=N\OCc2cc(=O)c(O)cn2O)c2csc(N)n2)C(=O)N1S(=O)(=O)[O-].[Na+] (stereo not drawn) [Example 2, 3-[2-(2-Aminothiazol-4-yl)-(Z)-2-{(1,5-dihydroxy-4-pyridon-2-ylmethoxy)imino}-acetamido]-4-carbamoyloxymethyl-2-azetidinone-1-sulfonic acid, sodium salt]	0.5	0.25	0.06	0.13	128	0.13	0.06	0.06
	Nc1nc(/C(=N/OCc2cc(=O)c(O)cn2O)C(=O)NC2C(=O)N(S(=O)(=O)[O-])C2CF)cs1.[Na+] (stereo not drawn) [Example 3, 3-[2-(2-Aminothiazol-4-yl)-(Z)-2-{(1,5-dihydroxy-4-pyridon-2-yl-methoxy)imino}-acetamido]-4-fluoromethyl-2-azetidinone-1-sulfonic acid, sodium salt]	0.5	2	0.06	0.06	32	0.13	0.06	0.06
